Patent US12180526B2, “Subterranean microalgae for production of microbial biomass, substances, and compositions” (Kuehnle AgroSystems, Inc., priority 2019, dated 2024)

Assay: DPPH Radical Scavenging Activity
Conditions: DPPH 0.06 mM in methanol
Method: Extraction and isolation of C-PC are carried out as is known in the art (Wu et al. 2016) using commercial grade biomass from a source in Hawaii. The C-PC is then further purified by ultrafiltration using a 10 kDa membrane to obtain an absorbance ratio of A620/A280 of 1.4 and stored frozen as a lyophilized powder. For testing, powder is solubilized in phosphate-citrate buffer to 0.4 mg/mL. Samples are tested for thermal stability at 65° C. for 30 minutes, at pH 6.0, per Example 3. The addition of EPS at a concentration of 1% (w/v; produced from resolubilized lyophilized powder with no added grinding) results in a reduction of the CR value by 13% compared to the control lacking stabilizing agents after exposure to 65° C. for 30 min at pH 6.0. This indicates added stabilization, which can likely be optimized with additional testing. Antioxidant capacity is measured using the DPPH Radical Scavenging Activity as is known in the art (Alam et al. 2013), with the modification of using DPPH (1,1-diphenyl-2-picrylhydrazyl; Sigma-Aldrich D9132) in methanol (0.06 mM), and readings taken on a Biotek Synergy HTX multi-mode microplate reader.

phycocyanin
antioxidant activity IC50: 1800 µg/mL
